Experimental data published in patent publication US11267812B2 (Mirati Therapeutics, Inc., priority 2016, dated 2022).
pIC50: −log10 of the molar value.

Each molecule was assayed on Phospho-ERK in NCI-H358 cells expressing KRas G12C (assay: Cellular inhibition of KRas G12C by Phospho-ERK measurement in NCI-H358 cells). Details: Homo sapiens, NCI-H358, 3 h, read-out: IC50 (pERK(Thr202/Tyr204) normalized with GAPDH).
Assay type: cell-based
Description: The cellular inhibition of KRAs G12C by exemplary compounds of the present invention was determined by measuring the amount of a downstream marker of KRas activity, phosphorylated ERK (“Phospho-ERK”).
NCI-H358 cells (ATCC CRL-5807) express KRas G12C and were grown in RPMI medium supplemented with 10% fetal bovine serum, penicillin/streptomycin and 10 mM HEPES. Cells were plated in poly-D-Lysine coated 96-well plates at a concentration of 50,000 cells/well and allowed to attach for 8-12 hours. Diluted compounds were then added at a final concentration of 0.5% DMSO. After 3 hours, the medium was removed, 150 μL of 4% formaldehyde was added and the plates were incubated for 20 minutes. The plates were washed with PBS, and permeabilized using 150 μL of ice cold 100% methanol for 10 minutes. Non-specific antibody binding to the plates was blocked using 100 μL Licor Blocking Buffer (Li-Cor Biotechnology, Lincoln Nebr.) for 1 hour at room temperature. Positive control samples and samples lacking cells were parallel processed with test samples as standards.
The amount Phospho-ERK was determined using an antibody specific for the phosphorylated form of ERK and compared to the amount of GAPDH. Primary antibodies used for detection were added as follows: Phospho-ERK (Cell Signaling cs9101) diluted 1:500 and GAPDH (Millipore MAB374) diluted 1:5000 in Licor block+0.05% Tween 20. The plates were incubated for 2 hours at room temperature. The plates were washed with PBS+0.05% Tween 20.
Secondary antibodies used to visualize primary antibodies were added as follows: Anti-rabbit-680 diluted 1:1000 and Anti-mouse-800 diluted 1:1000 in Licor Block+0.050 Tween 20 and incubated for 1 hour at room temperature. The plates were washed with PBS+0.05% o Tween 20. A100 L aliquot of PBS was added to each well and the plates were read on a LICOR AERIUS plate reader.
The pERK(Thr202/Tyr204) signal was normalized with the GAPDH signal and percent of DMSO control values were calculated. IC50 values were generated using a 4 parameter fit of the dose response curve. Key: “A”≥0.001-≤1 μM; “B”[…] and ND=not determined.

| Structure (SMILES) | pIC50 |
| --- | --- |
| C=CC(=O)N1CCN(c2nc(OC[C@H]3CCCN3C)nc3c2CCN(c2cc(O)cc4ccccc24)C3)CC1 [Example 187, (R)-1-(4-(7-(3-hydroxynaphthalen-1-yl)-2-((1-methylpyrrolidin-2-yl)methoxy)-5,6,7,8-tetrahydropyrido[3,4-d]pyrimidin-4-yl)piperazin-1-yl)prop-2-en-1-one] | 6.00 to 9.00 |

Same assay, conditions: Homo sapiens; NCI-H358 cells, 3 hours compound treatment; read-out: IC50 (pERK(Thr202/Tyr204) normalized with GAPDH)

| Structure (SMILES) | pIC50 |
| --- | --- |
| C=CC(=O)N1CCN(c2nc(OCCN3CCCC[C@@H]3C)nc3c2CCN(c2cc(O)cc4ccccc24)C3)CC1 [Example 88, (S)-1-(4-(7-(3-hydroxynaphthalen-1-yl)-2-(2-(2-methylpiperidin-1-yl)ethoxy)-5,6,7,8-tetrahydropyrido[3,4-d]pyrimidin-4-yl)piperazin-1-yl)prop-2-en-1-one] | 6.00 to 9.00 |
| C=CC(=O)N1CCN(c2nc(OC[C@@H]3CCCN3CCOC)nc3c2CCN(c2cc(O)cc4ccccc24)C3)CC1 [Example 144, (S)-1-(4-(7-(3-hydroxynaphthalen-1-yl)-2-((1-(2-methoxyethyl)pyrrolidin-2-yl)methoxy)-5,6,7,8-tetrahydropyrido[3,4-d]pyrimidin-4-yl)piperazin-1-yl)prop-2-en-1-one] | 6.00 to 9.00 |
| C=CC(=O)N1CCN(c2nc(OCCN3CCC(OC)CC3)nc3c2CCN(c2cc(O)cc4ccccc24)C3)CC1 [Example 108, 1-(4-(7-(3-hydroxynaphthalen-1-yl)-2-(2-(4-methoxypiperidin-1-yl)ethoxy)-5,6,7,8-tetrahydropyrido[3,4-d]pyrimidin-4-yl)piperazin-1-yl)prop-2-en-1-one] | 6.00 to 9.00 |
| C=CC(=O)N1CCN(c2nc(OCCCN3C[C@@H]4C[C@H]3CO4)nc3c2CCN(c2cc(O)cc4ccccc24)C3)CC1CC#N (stereo partly drawn) [Example 153, 2-[4-[7-(3-hydroxy-1-naphthyl)-2-[3-[(1S,4S)-2-oxa-5-azabicyclo[2.2.1]heptan-5-yl]propoxy]-6,8-dihydro-5H-pyrido[3,4-d]pyrimidin-4-yl]-1-prop-2-enoyl-piperazin-2-yl]acetonitrile] | 6.00 to 9.00 |
| C=CC(=O)N1CCN(c2nc(OC[C@@H]3CCCN3C)nc3c2CCN(c2cc(O)cc4ccccc24)C3)C(CO)C1 (stereo partly drawn) [Example 169, 1-[3-(hydroxymethyl)-4-[7-(3-hydroxy-1-naphthyl)-2-[[(2S)-1-methylpyrrolidin-2-yl]methoxy]-6,8-dihydro-5H-pyrido[3,4-d]pyrimidin-4-yl]piperazin-1-yl]prop-2-en-1-one] | 6.00 to 9.00 |
| C=CC(=O)N1CCN(c2nc(OCC3CCN(CCOC)C3)nc3c2CCN(c2cc(O)cc4ccccc24)C3)CC1 (stereo not shown) [Example 103, 1-(4-(7-(3-hydroxynaphthalen-1-yl)-2-((1-(2-methoxyethyl)pyrrolidin-3-yl)methoxy)-5,6,7,8-tetrahydropyrido[3,4-d]pyrimidin-4-yl)piperazin-1-yl)prop-2-en-1-one] | 6.00 to 9.00 |
| CN1CCC[C@H]1COc1nc2c(c(N3CCN(C(=O)/C=C/CN4CCCCC4)[C@@H](CC#N)C3)n1)CCN(c1cccc3ccccc13)C2 [Example 236, 2-((S)-4-(2-(((S)-1-methylpyrrolidin-2-yl)methoxy)-7-(naphthalen-1-yl)-5,6,7,8-tetrahydropyrido[3,4-d]pyrimidin-4-yl)-1-(E-4-(piperidin-1-yl)but-2-enoyl)piperazin-2-yl)acetonitrile] | 6.00 to 9.00 |
| C=CC(=O)N1CCN(c2nc(OCC3CCCN(C)C3)nc3c2CCN(c2cc(O)cc4ccccc24)C3)CC1 (stereo not shown) [Example 72, 1-(4-(7-(3-hydroxynaphthalen-1-yl)-2-((1-methylpiperidin-3-yl)methoxy)-5,6,7,8-tetrahydropyrido[3,4-d]pyrimidin-4-yl)piperazin-1-yl)prop-2-en-1-one] | 6.00 to 9.00 |
| C=CC(=O)N1CCN(c2nc(OCCN3CCC(C)CC3)nc3c2CCN(c2cc(O)cc4ccccc24)C3)CC1 [Example 92, 1-(4-(7-(3-hydroxynaphthalen-1-yl)-2-(2-(4-methylpiperidin-1-yl)ethoxy)-5,6,7,8-tetrahydropyrido[3,4-d]pyrimidin-4-yl)piperazin-1-yl)prop-2-en-1-one] | 6.00 to 9.00 |
| C=CC(=O)N1CCN(c2nc(OC[C@@H]3COCCN3C)nc3c2CCN(c2cccc4ccccc24)C3)CC1CC#N (stereo partly drawn) [Example 272, 2-(1-acryloyl-4-(2-(((S)-4-methylmorpholin-3-yl)methoxy)-7-(naphthalen-1-yl)-5,6,7,8-tetrahydropyrido[3,4-d]pyrimidin-4-yl)piperazin-2-yl)acetonitrile] | 6.00 to 9.00 |
| C=CC(=O)N1CCN(c2nc(OCC3CCN(C4CCCCC4)C3)nc3c2CCN(c2cc(O)cc4ccccc24)C3)CC1 (stereo not shown) [Example 132, 1-[4-[2-[(1-cyclohexylpyrrolidin-3-yl)methoxy]-7-(3-hydroxy-1-naphthyl)-6,8-dihydro-5H-pyrido[3,4-d]pyrimidin-4-yl]piperazin-1-yl]prop-2-en-1-one] | 6.00 to 9.00 |
| C=CC(=O)N1CCN(c2nc(OCCN(C)C)nc3c2CCN(c2cc(O)cc4ccccc24)C3)[C@@H](C)C1 [Example 116, (S)-1-(4-(2-(2-(dimethylamino)ethoxy)-7-(3-hydroxynaphthalen-1-yl)-5,6,7,8-tetrahydropyrido[3,4-d]pyrimidin-4-yl)-3-methylpiperazin-1-yl)prop-2-en-1-one] | 6.00 to 9.00 |
| C=CC(=O)N1CCN(c2nc(OC[C@@H]3CCN(C)C3)nc3c2CCN(c2cc(O)cc4ccccc24)C3)CC1CC#N (stereo partly drawn) [Example 179, 2-[4-[7-(3-hydroxy-1-naphthyl)-2-[[(3R)-1-methylpyrrolidin-3-yl]methoxy]-6,8-dihydro-5H-pyrido[3,4-d]pyrimidin-4-yl]-1-prop-2-enoyl-piperazin-2-yl]acetonitrile] | 6.00 to 9.00 |
| C=CC(=O)N1CCN(c2nc(OCCCCN(C)C)nc3c2CCN(c2cc(O)cc4ccccc24)C3)CC1 [Example 40, 1-(4-(2-(4-(dimethylamino)butoxy)-7-(3-hydroxynaphthalen-1-yl)-5,6,7,8-tetrahydropyrido[3,4-d]pyrimidin-4-yl)piperazin-1-yl)prop-2-en-1-one] | 6.00 to 9.00 |
| C=CC(=O)N1CCN(c2nc(O[C@@H]3CCCN(C)C3)nc3c2CCN(c2cc(O)cc4ccccc24)C3)CC1 [Example 67, (R)-1-(4-(7-(3-hydroxynaphthalen-1-yl)-2-((1-methylpiperidin-3-yl)oxy)-5,6,7,8-tetrahydropyrido[3,4-d]pyrimidin-4-yl)piperazin-1-yl)prop-2-en-1-one] | 6.00 to 9.00 |
| C=CC(=O)N1CCN(c2nc(O[C@H](C)CN3CC[C@H](OC)C3)nc3c2CCN(c2cc(O)cc4ccccc24)C3)CC1 [Example 64, 1-(4-(7-(3-hydroxynaphthalen-1-yl)-2-(((R)-1-((S)-3-methoxypyrrolidin-1-yl)propan-2-yl)oxy)-5,6,7,8-tetrahydropyrido[3,4-d]pyrimidin-4-yl)piperazin-1-yl)prop-2-en-1-one] | 6.00 to 9.00 |
| C=CC(=O)N1CCN(c2nc(O[C@H](C)CN3CCCCC3)nc3c2CCN(c2cc(O)cc4ccccc24)C3)CC1 [Example 75, (R)-1-(4-(7-(3-hydroxynaphthalen-1-yl)-2-((1-(piperidin-1-yl)propan-2-yl)oxy)-5,6,7,8-tetrahydropyrido[3,4-d]pyrimidin-4-yl)piperazin-1-yl)prop-2-en-1-one] | 6.00 to 9.00 |
| C=CC(=O)N1CCN(c2nc(OCC3CN(C)CCO3)nc3c2CCN(c2cc(O)cc4ccccc24)C3)CC1 (stereo not shown) [Example 193, 1-(4-(7-(3-hydroxynaphthalen-1-yl)-2-((4-methylmorpholin-2-yl)methoxy)-5,6,7,8-tetrahydropyrido[3,4-d]pyrimidin-4-yl)piperazin-1-yl)prop-2-en-1-one] | 6.00 to 9.00 |
| C=CC(=O)N1CCN(c2nc(OCCN3CCC[C@H](F)C3)nc3c2CCN(c2cc(O)cc4ccccc24)C3)CC1 [Example 111, (S)-1-(4-(2-(2-(3-fluoropiperidin-1-yl)ethoxy)-7-(3-hydroxynaphthalen-1-yl)-5,6,7,8-tetrahydropyrido[3,4-d]pyrimidin-4-yl)piperazin-1-yl)prop-2-en-1-one] | 6.00 to 9.00 |
| C=CC(=O)N1CCN(c2nc(OC[C@@H]3CCCN3C)nc3c2CCN(c2c(C)ccc4cn[nH]c24)C3)CC1CC#N (stereo partly drawn) [Example 238, 2-(1-acryloyl-4-(7-(6-methyl-1H-indazol-7-yl)-2-(((S)-1-methylpyrrolidin-2-yl)methoxy)-5,6,7,8-tetrahydropyrido[3,4-d]pyrimidin-4-yl)piperazin-2-yl)acetonitrile] | 6.00 to 9.00 |
| C=CC(=O)N1CCN(c2nc(OC[C@@H]3C[C@@H](OC)CN3C)nc3c2CCN(c2cccc4ccccc24)C3)CC1CC#N (stereo partly drawn) [Example 268, 2-(1-acryloyl-4-(2-(((2S,4R)-4-methoxy-1-methylpyrrolidin-2-yl)methoxy)-7-(naphthalen-1-yl)-5,6,7,8-tetrahydropyrido[3,4-d]pyrimidin-4-yl)piperazin-2-yl)acetonitrile] | 6.00 to 9.00 |
